Source: patent US8993585B2, “Cyclic amine substituted pyrimidinediamines as PKC inhibitors” (Rigel Pharmaceuticals, Inc., priority 2007, dated 2015)

Test system: Human primary T cells
Test: IL-2 ELISA, Human Primary T Cell, Anti-CD3+CD28+ (Example 3)
Assay type: cell-based
Details: anti-CD3+CD28 stimulation
Summary of the method: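 Human primary T cells, 100,000 per well, were pre-incubated with compound in Yssel's medium for 1 h at 37 °C. The counter-assay used 0.5 ng/ml PMA with 0.1 uM ionomycin final.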

Row | IC50 (Homo sapiens, T-cell, 24 h) [nM] | SMILES | further results
1 | 5220 | CC1(C)CC(Nc2nc(Nc3ccc4c(c3)OC(C)(C)O4)ncc2F)CC(C)(C)N1 [II-102] | 
2 | 3690 | CN1C(C)(C)CC(Nc2nc(Nc3ccc4c(c3)OC(C)(C)O4)ncc2F)CC1(C)C [II-103] | 
3 | 2170 | CN1C(C)(C)CC(Nc2nc(Nc3ccc4c(c3)OC3(CCCC3)O4)ncc2F)CC1(C)C [II-113] | 
4 | 2630 | CN1C(C)(C)CC(Nc2nc(Nc3ccc4c(c3)OC3(CCCCC3)O4)ncc2F)CC1(C)C [II-114] | 
5 | 1840 | CN1C(C)(C)CC(Nc2nc(Nc3cc4c(cc3Cl)OCO4)ncc2F)CC1(C)C [II-115] | 
6 | 1470 | CN1C(C)(C)CC(Nc2nc(Nc3cc4c(cc3Cl)OCCO4)ncc2F)CC1(C)C [II-116] | 
7 | 1350 | CC1(C)CC(Nc2nc(Nc3ccc4c(c3)OC3(CCCC3)O4)ncc2F)CC(C)(C)N1 [II-120] | 
8 | 1810 | CC1(C)CC(Nc2nc(Nc3ccc4c(c3)OC3(CCCCC3)O4)ncc2F)CC(C)(C)N1 [II-121] | 
9 | 2160 | CN1C(C)(C)CC(Nc2nc(Nc3cc4c(cc3Br)OC(F)(F)O4)ncc2F)CC1(C)C [II-122] | 
10 | 880 | CN1C(C)(C)CC(Nc2nc(Nc3cc4c(cc3F)OC(F)(F)C(F)(F)O4)ncc2F)CC1(C)C [II-123] | 
11 | 450 | CN1C(C)(C)CC(Nc2nc(Nc3ccc4c(c3)OCCO4)ncc2Br)CC1(C)C [II-127] | 
12 | 10900 | COc1cnc(Nc2ccc3c(c2)OCCO3)nc1NC1CC(C)(C)N(C)C(C)(C)C1 [II-129] | 
13 | 990 | CN1C(C)(C)CC(Nc2nc(Nc3nc4ccc(F)cc4s3)ncc2F)CC1(C)C [II-131] | 
14 | 840 | CN1C(C)(C)CC(Nc2nc(Nc3nc(-c4ccc5c(c4)OCCO5)cs3)ncc2F)CC1(C)C [II-132] | 
15 | 2220 | CN1C(C)(C)CC(Nc2nc(Nc3nc(-c4ccc(N5CCCC5)cc4)cs3)ncc2F)CC1(C)C [II-133] | 
16 | 16000 | CN1C(C)(C)CC(Nc2nc(Nc3nc(C(F)(F)F)co3)ncc2F)CC1(C)C [II-134] | 
17 | 3600 | CCN(CC)c1ccc(-c2csc(Nc3ncc(F)c(NC4CC(C)(C)N(C)C(C)(C)C4)n3)n2)cc1 [II-135] | 
18 | 910 | CN1C(C)(C)CC(Nc2nc(Nc3nc(-c4cccnc4)cs3)ncc2F)CC1(C)C [II-136] | 
19 | 460 | COc1ccc(-c2csc(Nc3ncc(F)c(NC4CC(C)(C)N(C)C(C)(C)C4)n3)n2)cc1F [II-137] | 
20 | 710 | COc1ccc(-c2csc(Nc3ncc(F)c(NC4CC(C)(C)N(C)C(C)(C)C4)n3)n2)cc1OC [II-138] | 

Row | IC50 (Homo sapiens, T-cell, 24 h) [nM] | SMILES | further results
21 | 910 | CN1C(C)(C)CC(Nc2nc(Nc3nc(-c4ccc(Oc5ccccc5)cc4)cs3)ncc2F)CC1(C)C [II-139] | 
22 | 590 | CN1C(C)(C)CC(Nc2nc(Nc3nc(-c4ccc(C(F)(F)F)cc4)cs3)ncc2F)CC1(C)C [II-140] | 
23 | 1000 | CN1C(C)(C)CC(Nc2nc(Nc3nc(-c4ccc(F)cc4F)cs3)ncc2F)CC1(C)C [II-141] | 
24 | 1030 | CN1C(C)(C)CC(Nc2nc(Nc3nc(-c4ccc(NS(=O)(=O)c5ccc(Cl)cc5)cc4)cs3)ncc2F)CC1(C)C [II-142] | 
25 | 1080 | CN1C(C)(C)CC(Nc2nc(Nc3nc4ccc(S(C)(=O)=O)cc4s3)ncc2F)CC1(C)C [II-144] | 
26 | 3130 | Cc1cnc(Nc2ccc3c(c2)OCCO3)nc1NC1CC(C)(C)N(C)C(C)(C)C1 [II-146] | 
27 | 990 | CN1C(C)(C)CC(Nc2nc(Nc3ccc4c(c3)C(=O)NC4=O)ncc2F)CC1(C)C [II-148] | 
28 | 990 | CN1C(=O)c2ccc(Nc3ncc(F)c(NC4CC(C)(C)N(C)C(C)(C)C4)n3)cc2C1=O [II-149] | 
29 |  | CN1C(C)(C)CC(Nc2nc(Nc3ccc4c(c3)OCCO4)ncc2C#C[Si](C)(C)C)CC1(C)C [II-150] | IC50 (T-cell, 24 hours): 3580 nM
30 |  | CCN1C(=O)C(C)(C)Oc2cc(Nc3ncc(C#C[Si](C)(C)C)c(NC4CC(C)(C)N(C)C(C)(C)C4)n3)ccc21 [II-151] | IC50 (T-cell, 24 hours): 1250 nM
31 | 540 | C#Cc1cnc(Nc2ccc3c(c2)OC(C)(C)C(=O)N3CC)nc1NC1CC(C)(C)N(C)C(C)(C)C1 [II-152] | 
32 | 1800 | CN1C(=O)c2ccc(Nc3ncc(F)c(NC4CC(C)(C)NC(C)(C)C4)n3)cc2C1=O [II-153] | 
33 | 5930 | C#Cc1cnc(Nc2ccc3c(c2)OCCO3)nc1NC1CC(C)(C)N(C)C(C)(C)C1 [II-156] | 
34 | 7200 | CN1CCN(C(=O)C2COc3cc(Nc4ncc(F)c(NC5CC(C)(C)N(C)C(C)(C)C5)n4)ccc3O2)CC1 (stereo not drawn) [II-158] | 
35 | 8910 | CC1(C)CC(Nc2nc(Nc3ccc4c(c3)OCC(C(N)=O)O4)ncc2F)CC(C)(C)N1 (stereo not drawn) [II-159] | 
36 | 17900 | CN1CCN(C(=O)C2COc3cc(Nc4ncc(F)c(NC5CC(C)(C)NC(C)(C)C5)n4)ccc3O2)CC1 (stereo not drawn) [II-160] | 
37 | 1130 | CC(C)n1c(=O)oc2cc(Nc3ncc(C#N)c(NC4CC(C)(C)NC(C)(C)C4)n3)ccc21 [II-162] | 
38 |  | CC(C)N1C(=O)C2(CCC2)Oc2cc(Nc3ncc(F)c(NC4CC(C)(C)N(C)C(C)(C)C4)n3)ccc21 [II-165] | IC50 (24 hours): 410 nM
39 |  | CCCN1C(=O)C2(CCC2)Oc2cc(Nc3ncc(F)c(NC4CC(C)(C)N(C)C(C)(C)C4)n3)ccc21 [II-166] | IC50 (24 hours): 440 nM
40 | 2180 | CN1C(C)(C)CC(Nc2nc(Nc3ccc4c(c3)oc(=O)n4CCN3CCOCC3)ncc2F)CC1(C)C [II-167] | 

Row | IC50 (Homo sapiens, T-cell, 24 h) [nM] | SMILES | further results
41 | 5600 | CC1(C)CC(Nc2nc(Nc3ccc4c(c3)oc(=O)n4CCN3CCOCC3)ncc2F)CC(C)(C)N1 [II-168] | 
42 | 3500 | CN1C(C)(C)CC(Nc2nc(Nc3ccc4c(c3)oc(=O)n4CCN3CCOCC3)ncc2C#N)CC1(C)C [II-169] | 
43 | 15800 | CC1(C)CC(Nc2nc(Nc3ccc4c(c3)oc(=O)n4CCN3CCOCC3)ncc2C#N)CC(C)(C)N1 [II-170] | 
44 | 750 | CN1C(C)(C)CC(Nc2nc(Nc3ccc4c(c3)oc(=O)n4CCF)ncc2F)CC1(C)C [II-172] | 
45 | 1320 | CCn1c(=O)oc2ccc(Nc3ncc(F)c(NC4CC(C)(C)N(C)C(C)(C)C4)n3)cc21 [II-173] | 
46 | 2940 | CCn1c(=O)oc2ccc(Nc3ncc(F)c(NC4CC(C)(C)NC(C)(C)C4)n3)cc21 [II-174] | 
47 | 2140 | CN1C(C)(C)CC(Nc2nc(Nc3cc4c(cc3F)OC(F)(F)O4)ncc2F)CC1(C)C [II-176] | 
48 |  | COc1ccc(Nc2ncc(F)c(NC3CCN(C)CC3)n2)cc1Cl [III-1, N2-(3-Chloro-4-methoxy)phenyl-5-fluoro-N4-(1-methylpiperidin-4-yl)-2,4-pyrimidinediamine] | IC50 (24 hours): 2380 nM
49 |  | COc1ccc(Nc2ncc(F)c(NC3CCN(CCO)CC3)n2)cc1Cl [III-5, N2-(3-Chloro-4-methoxy)phenyl-5-fluoro-N4-[1-(2-hydroxyethyl)piperidin-4-yl]-2,4-pyrimidinediamine] | IC50 (24 hours): 3260 nM
50 |  | CN1CCN(c2ccc(Nc3ncc(F)c(NC4CCN(CCO)CC4)n3)cc2Cl)CC1 [III-8, N2-[3-Chloro-4-(4-methylpiperazino)]phenyl-5-fluoro-N4-[1-(2-hydroxyethyl)piperidin-4-yl]-2,4-pyrimidinediamine] | IC50 (24 hours): 2610 nM
51 |  | COc1cc(Nc2ncc(F)c(NC3CCN(Cc4ccncc4)CC3)n2)cc(-n2nnnc2C)c1 [III-10, 5-fluoro-N2-[3-methoxy-5-(5-methyl-1H-tetrazol-1-yl)]phenyl-N4-[1-(pyridin-4-yl)methylpiperidin-4-yl]-2,4-pyrimidinediamine] | IC50 (24 hours): 2220 nM
52 | 176 | COc1cc(Nc2ncc(F)c(NC3C[C@H](C)N(C)[C@@H](C)C3)n2)cc(-n2nnnc2C)c1 (stereo partly drawn) [IV-1, 5-Fluoro-N2-[3-methoxy-5-(5-methyl-tetrazol-1-yl)]phenyl-N4-(1,2,6,-trimethylpiperidin-4-yl)-2,4-pyrimidinediamine, trans isomer] | 
53 | 3140 | COc1cc(Nc2nc(C)cc(NC3CC(C)(C)N(C)C(C)(C)C3)n2)cc(OC)c1 [IV-2] | 
54 | 4390 | Cc1cc(NC2CC(C)(C)N(C)C(C)(C)C2)nc(Nc2ccc(N3CCN(S(C)(=O)=O)CC3)c(Cl)c2)n1 [IV-3] | 
55 | 7050 | CCN(CC)C1CCC(Nc2nc(Nc3ccc(N4CCN(S(C)(=O)=O)CC4)c(Cl)c3)ncc2F)CC1 (stereo not drawn) [IV-4, N2-[3-Chloro-4-(4-methylsulfonylpiperazino)]phenyl-N4-(4-diethylamino)cyclohexyl-5-fluoro-2,4-pyrimidinediamine] | 
56 | 4610 | CCN(CC)C1CCC(Nc2nc(Nc3ccc(OC)c(Cl)c3)ncc2F)CC1 (stereo not drawn) [IV-5, N2-(3-Chloro-4-methoxy)phenyl-N4-(4-diethylamino)cyclohexyl-5-fluoro-2,4-pyrimidinediamine] | 
57 | 4510 | CCN(CC)C1CCC(Nc2nc(Nc3cccc(C#N)c3)ncc2F)CC1 (stereo not drawn) [IV-6, N2-(3-Cyano)phenyl-N4-(4-diethylamino)cyclohexyl-5-fluoro-2,4-pyrimidinediamine] | 
58 |  | CCN(CC)C1CCC(Nc2nc(Nc3ccc(N4CCN(C)CC4)c(C(F)(F)F)c3)ncc2F)CC1 (stereo not drawn) [IV-7, N4-(4-Diethylamino)cyclohexyl-5-fluoro-N2-[4-(4-methylpiperazino)-3-trifluoromethyl]phenyl-2,4-pyrimidinediamine] | IC50 (24 hours): 3620 nM
59 | 4410 | CCN(CC)C1CCC(Nc2nc(Nc3ccc(N4CCN(C)CC4)c(Cl)c3)ncc2F)CC1 (stereo not drawn) [IV-8, N2-[3-Chloro-4-(4-methylpiperazino)]phenyl-N4-(4-diethylamino)cyclohexyl-5-fluoro-2,4-pyrimidinediamine] | 
60 | 3450 | CCN(CC)C1CCC(Nc2nc(Nc3ccc(N4CCN(S(C)(=O)=O)CC4)c(C(F)(F)F)c3)ncc2F)CC1 (stereo not drawn) [IV-9, N4-(4-Diethylamino)cyclohexyl-5-fluoro-N2-[4-(4-methylsulfonylpiperazino)-3-trifluoromethyl]phenyl-2,4-pyrimidinediamine] | 
